In US20210330818A1, “METHOD FOR ANALYZING NON-OBSERVED EFFECT CONCENTRATION (NOEC) OF CHEMICAL ON ORGANISM” (priority 2020, published 2021):

Tests used:
[1] = test system: Trichogramma; experiment: Chronic toxicity test on Trichogramma, egg card-dipping method; conditions: for NOEC (smallest NOEC among the endpoint effects): Trichogramma, overall over egg yield, emergence rate, adult survival time
Description: Trichogramma is one of the natural enemies that are most widely used and have dominant influence. As an important means to control insect pests, chemical pesticides can also cause toxic and side effects to natural enemies of the insect pests that will be killed by the chemical pesticides. […] In the test, Trichogramma was adopted as a test organism, dimethoate and imidacloprid were adopted as test chemicals, and endpoint effects were egg yield, emergence rate and adult survival time. 6 treatment concentrations (including 1 blank control and 5 test chemical concentrations, see Table 1 for details) were set for each test chemical group.
The egg card-dipping method was adopted. A 1.0 cm×2.0 cm card of rice moth eggs (approximately 100 eggs) was placed in each finger tube, then about 20 Trichogramma adults at 4 h to 6 h after emergence were introduced, and the Trichogramma adults were removed after they had parasitized the rice moth eggs for 24 h. 144 h later, the egg cards were dipped in test solutions with different concentrations separately for 5 s, then taken out and air dried, and put into finger tubes. The tubes were sealed with a black cloth, and then put in an incubator until the emergence of Trichogramma adults was completed. A 0.1% Triton X-100 aqueous solution was adopted as a blank control. 9 replicates were set for each treatment, and divided into three groups for the observation of 3 endpoint effects respectively, namely, with 3 replicates for each endpoint effect. A first group was used to investigate the egg yield; a second group was used to investigate the number of emerged adults, and the emergence rate was calculated (emergence rate=the number of emerged adults/the number of […]×100%); and a third group was used to investigate the adult survival time. If the number of emerged adults is less than 30 or the emerged adults have a low vitality and thus cannot be transferred to a new finger tube autonomously, the parasitism rate and survival time will not be investigated.

[2] = test system: quail; experiment: Chronic toxicity (growth and reproduction) test for quails fed poisonous feedstuff; format: in vivo; conditions: for Egg production: average daily, day 40 to 48; for Stillbirth rate: eggs of day 45 to 50; for NOEC (smallest NOEC among the endpoint effects): quail, overall over body weight, egg production, stillbirth rate
Description: In the test, the quail was adopted as a test organism, acetamiprid and MCPA were adopted as test chemicals, and the end effects were body weight, average daily egg production and stillbirth rate.
Healthy and lively quails, which were 30-day old and weighed 90 g to 110 g, were selected for the test. The male and female were raised separately, with 10 quails for each cage. The quails were fed with a poisonous feedstuff twice a day at the same feeding amount for a long time, with an average feeding amount of 20 g per day for each quail. Since the feeding started, the body weight was recorded for quails in each treatment; the number of eggs produced on day 40 to 48 was counted; the eggs produced on day 45 to 50 were collected and hatched in a poultry-specific hatcher separately for each treatment; and the stillbirth rate was calculated. In this example, the endpoint effect data were body weight, egg production and stillbirth rate.

[3] = mass concentration 1.25 mg/Lfeedstuff
[4] = mass concentration 6.25 mg/Lfeedstuff
[5] = mass concentration 25 mg/Lfeedstuff
[6] = mass concentration 125 mg/Lfeedstuff
[7] = mass concentration 500 mg/Lfeedstuff
[8] = mass concentration 0.5 mg/Lfeedstuff
[9] = mass concentration 2 mg/Lfeedstuff
[10] = mass concentration 7 mg/Lfeedstuff
[11] = mass concentration 30 mg/Lfeedstuff
[12] = mass concentration 130 mg/Lfeedstuff

Structure (SMILES): O=[N+]([O-])NC1=NCCN1Cc1ccc(Cl)nc1 [Imidacloprid, imidacloprid]
- Validation: emergence rate compared with blank control ([1]; 35 mg/L): no significant difference
- NOEC (smallest NOEC among the endpoint effects) [1]: 40 mg/L
- NOEC for chronic toxicity in Trichogramma based on the adult survival time [1]: 160 mg/L
- NOEC for chronic toxicity in Trichogramma based on the egg yield [1]: 80 mg/L
- NOEC for chronic toxicity in Trichogramma based on the emergence rate [1]: 40 mg/L
- Adult survival time ([1]; mass concentration 10 mg/L): 3.60 a d
- Egg yield ([1]; mass concentration 10 mg/L): 37.0 a eggs
- Emergence rate ([1]; mass concentration 10 mg/L): 90.57 a %
- Adult survival time ([1]; mass concentration 20 mg/L): 3.23 a d
- Egg yield ([1]; mass concentration 20 mg/L): 37.3 a eggs
- Emergence rate ([1]; mass concentration 20 mg/L): 87.81 a %
- Adult survival time ([1]; mass concentration 40 mg/L): 3.50 a d
- Egg yield ([1]; mass concentration 40 mg/L): 36.0 a eggs
- Emergence rate ([1]; mass concentration 40 mg/L): 78.19 a %
- Adult survival time ([1]; mass concentration 80 mg/L): 3.21 a d
- Egg yield ([1]; mass concentration 80 mg/L): 34.2 a eggs
- Emergence rate ([1]; mass concentration 80 mg/L): 56.12 b %
- Adult survival time ([1]; mass concentration 160 mg/L): 3.12 a d
- Egg yield ([1]; mass concentration 160 mg/L): 28.5 b eggs
- Emergence rate ([1]; mass concentration 160 mg/L): 27.65 c %

Structure (SMILES): Cc1cc(Cl)ccc1OCC(=O)O [MCPA]
- Validation: body weight compared with blank control ([2]; 20 mg/L): no significant difference
- NOEC for chronic toxicity in quails based on the body weight [2]: 25 mg/kgfeedstuff
- NOEC for chronic toxicity in quails based on the egg production [2]: 500 mg/kgfeedstuff
- NOEC for chronic toxicity in quails based on the stillbirth rate [2]: 25 mg/kgfeedstuff
- Body weight [2, 3]: 148.5 ab g
- Egg production [2, 3]: 0.97 a eggs
- Stillbirth rate [2, 3]: 22.4 a %
- Body weight [2, 4]: 155.3 ab g
- Egg production [2, 4]: 0.96 a eggs
- Stillbirth rate [2, 4]: 23.2 ab %
- Body weight [2, 5]: 150.7 ab g
- Egg production [2, 5]: 0.96 a eggs
- Stillbirth rate [2, 5]: 21.2 a %
- Body weight [2, 6]: 145.2 b g
- Egg production [2, 6]: 0.95 a eggs
- Stillbirth rate [2, 6]: 26.4 b %
- Body weight [2, 7]: 159.5 a g
- Egg production [2, 7]: 0.94 a eggs
- Stillbirth rate [2, 7]: 37.3 b %
- NOEC (smallest NOEC among the endpoint effects) [2]: 25 mg/kgfeedstuff

Structure (SMILES): CNC(=O)CSP(=S)(OC)OC [Dimethoate, dimethoate]
- Validation: egg yield compared with blank control ([1]; 90 mg/L): no significant difference
- NOEC (smallest NOEC among the endpoint effects) [1]: 100 mg/L
- NOEC for chronic toxicity in Trichogramma based on the adult survival time [1]: 400 mg/L
- NOEC for chronic toxicity in Trichogramma based on the egg yield [1]: 100 mg/L
- NOEC for chronic toxicity in Trichogramma based on the emergence rate [1]: 200 mg/L
- Adult survival time ([1]; mass concentration 25 mg/L): 3.15 a d
- Egg yield ([1]; mass concentration 25 mg/L): 36.1 a eggs
- Adult survival time ([1]; mass concentration 50 mg/L): 3.27 a d
- Egg yield ([1]; mass concentration 50 mg/L): 34.2 a eggs
- Adult survival time ([1]; mass concentration 100 mg/L): 3.30 a d
- Egg yield ([1]; mass concentration 100 mg/L): 31.6 a eggs
- Adult survival time ([1]; mass concentration 200 mg/L): 2.67 a d
- Egg yield ([1]; mass concentration 200 mg/L): 27.2 b eggs
- Adult survival time ([1]; mass concentration 400 mg/L): 2.32 a d
- Egg yield ([1]; mass concentration 400 mg/L): 20.7 b eggs

Structure (SMILES): C/C(=N\C#N)N(C)Cc1ccc(Cl)nc1 [Acetamiprid, acetamiprid]
- Validation: body weight compared with blank control ([2]; 125 mg/L): no significant difference
- Validation: egg production compared with blank control ([2]; 125 mg/L): no significant difference
- Validation: stillbirth rate compared with blank control ([2]; 125 mg/L): no significant difference
- NOEC for chronic toxicity in quails based on the body weight [2]: 130 mg/kgfeedstuff
- NOEC for chronic toxicity in quails based on the egg production [2]: 130 mg/kgfeedstuff
- NOEC for chronic toxicity in quails based on the stillbirth rate [2]: 130 mg/kgfeedstuff
- Body weight [2, 8]: 150.9 a g
- Egg production [2, 8]: 0.87 a eggs
- Stillbirth rate [2, 8]: 23.4 a %
- Body weight [2, 9]: 156.7 a g
- Egg production [2, 9]: 0.86 a eggs
- Stillbirth rate [2, 9]: 16.7 a %
- Body weight [2, 10]: 153.6 a g
- Egg production [2, 10]: 0.87 a eggs
- Stillbirth rate [2, 10]: 25.7 a %
- Body weight [2, 11]: 151.9 a g
- Egg production [2, 11]: 0.89 a eggs
- Stillbirth rate [2, 11]: 26.4 a %
- Body weight [2, 12]: 145.4 a g
- Egg production [2, 12]: 0.86 a eggs
- Stillbirth rate [2, 12]: 21.9 a %
- NOEC (smallest NOEC among the endpoint effects) [2]: 130 mg/kgfeedstuff
